target: T1, Nanoluciferase-BRD9 fusion protein (3×FLAG-NLuc-BRD9) in SYO-1 cells (Homo sapiens, UniProt Q9H8M2); experiment: SYO1 BRD9 NanoLuc Degradation Assay; type: cell-based; settings: Table 6B; SYO-1 cells expressing 3×FLAG-NLuc-BRD9, 6 hours incubation, 1 μM top dose; read-out: SYO1 BRD9-NanoLuc degradation IC50
T1 construct: expressed in transfected cells; host or cells: SYO-1
T1 sequence (Q9H8M2 1-597): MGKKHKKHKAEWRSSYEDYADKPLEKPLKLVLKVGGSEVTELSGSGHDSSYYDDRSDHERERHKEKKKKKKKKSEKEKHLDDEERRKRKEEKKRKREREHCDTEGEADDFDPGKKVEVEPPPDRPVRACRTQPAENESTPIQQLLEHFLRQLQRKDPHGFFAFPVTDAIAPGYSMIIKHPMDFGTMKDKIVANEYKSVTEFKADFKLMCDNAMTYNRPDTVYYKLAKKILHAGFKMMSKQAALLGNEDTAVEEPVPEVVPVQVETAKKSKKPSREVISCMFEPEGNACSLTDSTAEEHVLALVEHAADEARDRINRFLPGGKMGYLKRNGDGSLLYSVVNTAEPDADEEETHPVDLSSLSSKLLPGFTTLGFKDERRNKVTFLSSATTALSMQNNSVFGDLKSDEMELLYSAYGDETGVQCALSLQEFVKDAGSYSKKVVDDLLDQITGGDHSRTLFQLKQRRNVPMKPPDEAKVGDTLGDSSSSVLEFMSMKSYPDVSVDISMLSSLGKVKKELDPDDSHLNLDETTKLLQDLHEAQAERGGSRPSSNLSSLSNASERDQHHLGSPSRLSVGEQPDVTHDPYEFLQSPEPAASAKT
Procedure, shortened: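 NanoLuc signal, read by Nano-Glo luminescence after 6 h compound exposure, gives % inhibition against DMSO-treated cells (high control) and cells given 1 μM of a standard BRD9 degrader (low control). Test compounds ran as 10-point 3-fold series, top 1 μM final, in duplicate on SYO-1 cells stably expressing 3×FLAG-NLuc-BRD9.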

`CNc1cc2c(=O)n(C)cc(-c3cc(OC)c(CN(C)CC45CC(C(=O)NCCCCCOc6ccc7c(c6)C(=O)N(C6CCC(=O)NC6=O)C7=O)(C4)C5)c(OC)c3)c2cn1` (centres unmarked) [Compound D173] and `CCc1cc(-c2cn(C)c(=O)c3cnc(N(C)C)cc23)cc(OC)c1CN1CCC(CN2CCC3(CC2)CC(Oc2ccc4c(c2)C(=O)N(C2CCC(=O)NC2=O)C4=O)C3)CC1` (centres unmarked) [Compound D174] cannot be ordered by DC50: under 10 nM for the first, under 10 nM for the second.

Going from `COc1cc(-c2cn(C)c(=O)c3cnc(OC(F)F)cc23)cc(OC)c1CN1CC(CN2CCC3(CC2)CN(c2ccc4c(c2)C(=O)N(C2CCC(=O)NC2=O)C4)C3)C1` (centres unmarked) [Compound D175] to `COc1cc2c(-c3cc(OC)c(CN4CC(CN5CCC6(CC5)CN(c5ccc7c(c5)C(=O)N(C5CCC(=O)NC5=O)C7)C6)C4)c(OC)c3)cn(C)c(=O)c2cn1` (centres unmarked) [Compound D184], the DC50 falls from at least 1000 nM to under 10 nM.

Going from `COc1cc(-c2cn(C)c(=O)c3ccc(N4CCC4)cc23)cc(OC)c1CN1CCC(N2CCN(c3ccc4c(c3)CN(C3CCC(=O)NC3=O)C4=O)CC2)CC1` (centres unmarked) [Compound D176] to `COc1cc(-c2cn(C)c(=O)c3ccc(N4CCC4)cc23)cc(OC)c1CN1CCC(C2CCN(c3ccc4c(c3)CN(C3CCC(=O)NC3=O)C4=O)CC2)CC1` (centres unmarked) [Compound D181], the DC50 rises from under 10 nM to at least 1000 nM.

Compared with `COc1cc(-c2cn(C)c(=O)c3cnc(N4CCC4)cc23)cc(OC)c1CN1CC(N2CCC(c3ccc4c(c3)CN(C3CCC(=O)NC3=O)C4=O)CC2)C1` (centres unmarked) [Compound D177], `COc1cc(-c2cn(C)c(=O)c3cnc(N4CCC4)cc23)cc(OC)c1CN1CC(N2CCC(c3ccc4c(c3)C(=O)N(C3CCC(=O)NC3=O)C4)CC2)C1` (centres unmarked) [Compound D179] is higher in DC50: under 10 nM for the first, at least 1000 nM for the second.

`COc1cc(-c2cn(C)c(=O)c3cnc(N4CCOCC4)cc23)cc(OC)c1CN1CCC(CN2CCC3(CC2)CC(Oc2ccc4c(c2)C(=O)N(C2CCC(=O)NC2=O)C4=O)C3)CC1` (centres unmarked) [Compound D178] and `COc1cc(-c2cn(C)c(=O)c3cnc(N4CCC4)nc23)cc(OC)c1CN1CCC(CN2CCC3(CC2)CC(Oc2ccc4c(c2)CN(C2CCC(=O)NC2=O)C4=O)C3)CC1` (centres unmarked) [Compound D182] cannot be ordered by DC50: under 10 nM for the first, under 10 nM for the second.

`COc1cc(-c2cn(C)c(=O)c3ccc(N4CCC4)cc23)cc(OC)c1CN1CCC(N2CCC(c3ccc4c(c3)CN(C3CCC(=O)NC3=O)C4=O)CC2)CC1` (centres unmarked) [Compound D183] gave a DC50 of at least 1000 nM.

same assay, conditions: Table 6C; SYO-1 cells expressing 3×FLAG-NLuc-BRD9, 6 hours incubation, 1 μM top dose; read-out: SYO1 BRD9-NanoLuc degradation IC50

`COc1cc(-c2cn(C)c(=O)c3cnc(N4CCC4)cc23)cc(OC)c1CN1CC(C(C)(C)N2CCC3(CC2)CN(c2ccc4c(c2)CN(C2CCC(=O)NC2=O)C4=O)C3)C1` (centres unmarked) [Compound D185] and `COc1cc(-c2cn(C)c(=O)c3cnc(N4CCC4)cc23)cc(OC)c1CN1CC(C(C)(C)N2CCC3(CC2)CN(c2ccc4c(c2)C(=O)N(C2CCC(=O)NC2=O)C4)C3)C1` (centres unmarked) [Compound D192] cannot be ordered by DC50: under 10 nM for the first, under 10 nM for the second.

`COc1cc(-c2cn(C)c(=O)c3cnc(C(F)(F)F)cc23)cc(OC)c1CN1CC(CN2CCC3(CC2)CN(c2ccc4c(c2)C(=O)N(C2CCC(=O)NC2=O)C4)C3)C1` (centres unmarked) [Compound D186] and `COc1cc(-c2cn(C)c(=O)c3cnc(C4CC4)cc23)cc(OC)c1CN1CC(CN2CCC3(CC2)CN(c2ccc4c(c2)C(=O)N(C2CCC(=O)NC2=O)C4)C3)C1` (centres unmarked) [Compound D193] cannot be ordered by DC50: under 10 nM for the first, under 10 nM for the second.

`COc1cc(-c2cn(C)c(=O)c3cnc(N4CCC4)cc23)cc(OC)c1CN1CCC(CN2CCC3(CC2)CC(Oc2ccc4c(c2)C(=O)N(C2CCC(=O)NC2=O)C4)C3)CC1` (centres unmarked) [Compound D187] and `COc1cc(-c2cn(C)c(=O)c3cnc(N4CCOCC4)cc23)cc(OC)c1CN1CCC(CN2CCC3(CC2)CC(Oc2ccc4c(c2)C(=O)N(C2CCC(=O)NC2=O)C4)C3)CC1` (centres unmarked) [Compound D194] cannot be ordered by DC50: under 10 nM for the first, under 10 nM for the second.

`COc1cc(-c2cn(C)c(=O)c3cnc(S(N)(=O)=O)cc23)cc(OC)c1CN1CCC(CN2CCC3(CC2)CC(Oc2ccc4c(c2)C(=O)N(C2CCC(=O)NC2=O)C4)C3)CC1` (centres unmarked) [Compound D188] and `COc1cc(-c2cn(C)c(=O)c3cnc(C(C)(C)C)cc23)cc(OC)c1CN1CCC(CN2CCC3(CC2)CC(Oc2ccc4c(c2)C(=O)N(C2CCC(=O)NC2=O)C4)C3)CC1` (centres unmarked) [Compound D214] cannot be ordered by DC50: under 10 nM for the first, under 10 nM for the second.

`COc1cc(-c2cn(C)c(=O)c3cnc(N(C)C)cc23)cc(Cl)c1C(=O)N1CCN(CCC2CCN(c3ccc4c(c3)CN(C3CCC(=O)NC3=O)C4=O)CC2)CC1` (centres unmarked) [Compound D189] and `[2H]C([2H])([2H])N(c1cc2c(-c3cc(OC)c(CN4CCN(CCC5CCN(c6ccc7c(c6)C(=O)N(C6CCC(=O)NC6=O)C7)CC5)CC4)c(OC)c3)cn(C)c(=O)c2cn1)C([2H])([2H])[2H]` (centres unmarked) [Compound D197] cannot be ordered by DC50: under 10 nM for the first, under 10 nM for the second.

First: COc1cc(-c2cn(C)c(=O)c3cnc(C(C)(C)CO)cc23)cc(OC)c1CN1CCC(CN2CCC3(CC2)CC(Oc2ccc4c(c2)C(=O)N(C2CCC(=O)NC2=O)C4)C3)CC1 (centres unmarked) [Compound D190]
Second: COc1cc(-c2nn(C)c(=O)c3cnc(N4CCC4)cc23)cc(OC)c1CN1CCC(CN2CCC3(CC2)CC(Oc2ccc4c(c2)C(=O)N(C2CCC(=O)NC2=O)C4)C3)CC1 (centres unmarked) [Compound D191]
The DC50 of the first is lower: under 10 nM for the first, 100 to 1000 nM for the second.

`COc1cc(-c2cn(C)c(=O)c3cnc(C4CC4)cc23)cc(OC)c1CN1CCC(C(N2CCC3(CC2)CC(Oc2ccc4c(c2)C(=O)N(C2CCC(=O)NC2=O)C4=O)C3)C(F)(F)F)CC1` (centres unmarked) [Compound D195] and `COc1cc(-c2cn(C)c(=O)c3cnc(N4CCOCC4)cc23)cc(OC)c1CN1CCC(C(N2CCC3(CC2)CC(Oc2ccc4c(c2)C(=O)N(C2CCC(=O)NC2=O)C4=O)C3)C(F)(F)F)CC1` (centres unmarked) [Compound D196] cannot be ordered by DC50: under 10 nM for the first, under 10 nM for the second.

`[2H]C([2H])([2H])Oc1cc2c(-c3cc(OC)c(CN4CCN(CCC5CCN(c6ccc7c(c6)C(=O)N(C6CCC(=O)NC6=O)C7)CC5)CC4)c(OC)c3)cn(C)c(=O)c2cn1` (centres unmarked) [Compound D198] and `CCOC1CC1c1cc2c(-c3cc(OC)c(CN4CCN(CCC5CCN(c6ccc7c(c6)C(=O)N(C6CCC(=O)NC6=O)C7)CC5)CC4)c(OC)c3)cn(C)c(=O)c2cn1` (centres unmarked) [Compound D203] cannot be ordered by DC50: under 10 nM for the first, under 10 nM for the second.

`COc1cc2c(-c3cc(OC)c(CN4CCC(CCN5CCC6(CC5)CN(c5ccc7c(c5)C(=O)N(C5CCC(=O)NC5=O)C7)C6)CC4)c(OC)c3)cn(C)c(=O)c2cn1` (centres unmarked) [Compound D199] and `COc1cc(-c2cn(C)c(=O)c3cnc(N4CC(C)(OC)C4)cc23)cc(OC)c1CN1CCC(CN2CCC3(CC2)CN(c2ccc4c(c2)C(=O)N(C2CCC(=O)NC2=O)C4)C3)CC1` (centres unmarked) [Compound D209] cannot be ordered by DC50: under 10 nM for the first, under 10 nM for the second.

`COc1cc(-c2cn(C)c(=O)c3cnc(N4CC(F)C4)cc23)cc(OC)c1CN1CC(CN2CCC3(CC2)CN(c2ccc4c(c2)C(=O)N(C2CCC(=O)NC2=O)C4)C3)C1` (centres unmarked) [Compound D200] and `COc1cc(-c2cn(C)c(=O)c3cnc(N4CC(F)C4)cc23)cc(OC)c1CN1CCC(CN2CCC3(CC2)CN(c2ccc4c(c2)C(=O)N(C2CCC(=O)NC2=O)C4)C3)CC1` (centres unmarked) [Compound D206] cannot be ordered by DC50: under 10 nM for the first, under 10 nM for the second.

`COc1cc(-c2cn(C)c(=O)c3cnc(N4CC5(CC5)C4)cc23)cc(OC)c1CN1CC(CN2CCC3(CC2)CN(c2ccc4c(c2)C(=O)N(C2CCC(=O)NC2=O)C4)C3)C1` (centres unmarked) [Compound D201] and `COc1cc(-c2cn(C)c(=O)c3cnc(N4CC(F)(F)C4)cc23)cc(OC)c1CN1CC(CN2CCC3(CC2)CN(c2ccc4c(c2)C(=O)N(C2CCC(=O)NC2=O)C4)C3)C1` (centres unmarked) [Compound D211] cannot be ordered by DC50: under 10 nM for the first, under 10 nM for the second.

`COc1cc(-c2cn(C)c(=O)c3cnc(N4CCC4)cc23)cc(OC)c1CN(C)c1ccc2c(c1)CN(C1CCC(=O)NC1=O)C2=O` (centres unmarked) [Compound D202] and `COc1cc(-c2cn(C)c(=O)c3cnc(N4CC[C@H]4C)cc23)cc(OC)c1CN1CC(CN2CCC3(CC2)CN(c2ccc4c(c2)C(=O)N(C2CCC(=O)NC2=O)C4)C3)C1` (some centres unmarked) [Compound D212] cannot be ordered by DC50: under 10 nM for the first, under 10 nM for the second.

`CCOC1CC1c1cc2c(-c3cc(OC)c(CN4CCN(CCC5CCN(c6ccc7c(c6)C(=O)N(C6CCC(=O)NC6=O)C7=O)CC5)CC4)c(OC)c3)cn(C)c(=O)c2cn1` (centres unmarked) [Compound D204] and `COc1cc(-c2cn(C)c(=O)c3cnc(N4CC[C@@H]4C)cc23)cc(OC)c1CN1CCC(CN2CCC3(CC2)CN(c2ccc4c(c2)C(=O)N(C2CCC(=O)NC2=O)C4)C3)CC1` (some centres unmarked) [Compound D207] cannot be ordered by DC50: under 10 nM for the first, under 10 nM for the second.

Compared with `COc1cc(-c2cn(C)c(=O)c3cnc(N4CC5(CC5)C4)cc23)cc(OC)c1CN1CCC(CN2CCC3(CC2)CN(c2ccc4c(c2)C(=O)N(C2CCC(=O)NC2=O)C4)C3)CC1` (centres unmarked) [Compound D205], `COc1cc(-c2cn(C)c(=O)c3cnc(N4CC[C@H]4C)cc23)cc(OC)c1CN1CCC(CN2CCC3(CC2)CN(c2ccc4c(c2)C(=O)N(C2CCC(=O)NC2=O)C4)C3)CC1` (some centres unmarked) [Compound D208] is lower in DC50: 10 to 100 nM for the first, under 10 nM for the second.

`COc1cc(-c2cn(C)c(=O)c3cnc(N4CC(C)(OC)C4)cc23)cc(OC)c1CN1CC(CN2CCC3(CC2)CN(c2ccc4c(c2)C(=O)N(C2CCC(=O)NC2=O)C4)C3)C1` (centres unmarked) [Compound D210] and `COc1cc(-c2cn(C)c(=O)c3cnc(N4CC[C@@H]4C)cc23)cc(OC)c1CN1CC(CN2CCC3(CC2)CN(c2ccc4c(c2)C(=O)N(C2CCC(=O)NC2=O)C4)C3)C1` (some centres unmarked) [Compound D213] cannot be ordered by DC50: under 10 nM for the first, under 10 nM for the second.

Reference: patent US12391686B2, “Compounds and uses thereof” (Foghorn Therapeutics Inc., priority 2019, dated 2025)
